Laboratory results as given in the supplement of paper PMC10331698.
± gives the standard deviation of the averaged measurements.

Legend:
Experiment in all cases: level (log10 ratio to DMSO vehicle control); higher = higher biomarker level / cell amount than vehicle control
Details in all cases: in DMSO
[1] = compound: C=C(C)C(=O)OCCC(F)(F)C(F)(F)C(F)(F)C(F)(F)C(F)(F)C(F)(F)F [6:2 Fluorotelomer methacrylate]
Experimental: (§1)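 BioMAP Diversity Plus panel of 12 human primary cell co-culture systems (3C, 4H, LPS, SAg, BT, BF4T, BE3C, CASM3C, HDF3CGF, KF3CT, MyoF, Mphg). Compounds were added 1 h before stimulation and left for 24 h (MyoF 48 h; BT 72 h for soluble read-outs or 6 d for IgG). Biomarkers were read by ELISA, cytotoxicity by SRB, PBMC viability and proliferation by Alamar Blue. Each well value was divided by the mean of 8 DMSO control wells on the same plate and log10 transformed; duplicate blinded samples were tested at 4 concentrations.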

[2] = compound: COC(=O)C(F)(F)C(F)(F)OC(F)(C(F)(F)F)C(F)(F)OC(F)=C(F)F [Methyl perfluoro(3-(1-ethenyloxypropan-2-yloxy)propanoate)]
Experimental: as §1

Heptafluorobutyl iodide = compound: FC(F)(F)C(F)(F)C(F)(F)CI [Heptafluorobutyl iodide]
Experimental: as §1

[3] = compound: FC(F)(F)C(F)(F)CNCC(F)(F)C(F)(F)F [Bis(1H,1H-perfluoropropyl)amine]
Experimental: as §1

[4] = compound: NC(=O)C(F)(F)C(F)(F)C(F)(F)C(F)F
Experimental: as §1

[5] = compound: NS(=O)(=O)C(F)(F)C(F)(F)C(F)(F)C(F)(F)C(F)(F)C(F)(F)F [Perfluorohexanesulfonamide]
Experimental: as §1

[6] = compound: O=C(O)C(F)(F)C(F)(F)C(F)(F)C(F)(F)C(F)(F)C(F)(F)C(F)(F)C(F)(F)C(F)(F)C(F)F [11-H-Perfluoroundecanoic acid]
Experimental: as §1

Test System	level (log10) ([1]; 6700 nM)	level (log10) ([1]; 20000 nM)	level (log10) ([1]; 60000 nM)	level (log10) ([2]; 6700 nM)	level (log10) ([2]; 20000 nM)	level (log10) (Heptafluorobutyl iodide; 6700 nM)	level (log10) (Heptafluorobutyl iodide; 20000 nM)	level (log10) (Heptafluorobutyl iodide; 60000 nM)	level (log10) ([3]; 6700 nM)	level (log10) ([3]; 20000 nM)	level (log10) ([3]; 60000 nM)	level (log10) ([4]; 6700 nM)	level (log10) ([4]; 20000 nM)	level (log10) ([4]; 60000 nM)	level (log10) ([5]; 6700 nM)	level (log10) ([5]; 20000 nM)	level (log10) ([5]; 60000 nM)	level (log10) ([6]; 6700 nM)	level (log10) ([6]; 20000 nM)
CASM3C:HLA-DR	-0.008 ± 0.042	-0.0015 ± 0.015	0.0155 ± 0.011	0.0145 ± 0.015	0.0155 ± 0.022	-0.016 ± 0.024	-0.022 ± 0.0014	-0.008 ± 0.0028	-0.013 ± 0.0057	-0.0105 ± 0.0021	0.015 ± 0.058	-0.0125 ± 0.042	-0.0075 ± 0.016	-0.008 ± 0.0014	0.002 ± 0.03	0 ± 0.0071	0.005 ± 0.0042	-0.0085 ± 0.0021	-0.02 ± 0.0028
CASM3C:IL-6	-0.0405 ± 0.035	-0.046 ± 0.0042	0.005 ± 0.0028	-0.018 ± 0.02	-0.0065 ± 0.025	-0.01 ± 0.011	-0.016 ± 0.0014	0.009 ± 0.031	-0.0335 ± 0.047	-0.035 ± 0.02	0.0065 ± 0.023	-0.0315 ± 0.0064	-0.0165 ± 0.012	0.017 ± 0.05	-0.0145 ± 0.013	-0.054 ± 0.0099	-0.0495 ± 0.044	-0.027 ± 0.014	-0.0395 ± 0.03
CASM3C:LDLR	-0.0185 ± 0.026	-0.001 ± 0.025	-0.016 ± 0.0099	-0.0035 ± 0.005	0.0085 ± 0.033	-0.0015 ± 0.00071	0.0025 ± 0.005	0.0145 ± 0.015	-0.005 ± 0.0099	-0.0065 ± 0.0021	-0.001 ± 0.025	-0.008	-0.006 ± 0.024	0.031 ± 0.042	-0.003 ± 0.014	-0.0105 ± 0.005	-0.04 ± 0.011	-0.0025 ± 0.005	-0.006 ± 0.0099
CASM3C:M-CSF	-0.004 ± 0.011	0.002 ± 0.0014	0.024 ± 0.021	-0.0075 ± 0.036	0.01 ± 0.025	-0.001 ± 0.0042	-0.0165 ± 0.0021	0.0195 ± 0.037	0.006 ± 0.016	-0.005 ± 0.016	0.0115 ± 0.028	-0.0485 ± 0.021	-0.0535 ± 0.046	0.019 ± 0.082	0.009 ± 0.035	0.0295 ± 0.012	0.119 ± 0.0035	0.0055 ± 0.0035	-0.004 ± 0.0099
CASM3C:PAI-I	-0.01 ± 0.013	-0.0055 ± 0.0021	0.007 ± 0.013	-0.0015 ± 0.0035	-0.0005 ± 0.012	-0.009 ± 0.0085	-0.0035 ± 0.005	-0.011 ± 0.0057	-0.0075 ± 0.0078	-0.009 ± 0.0042	0.005 ± 0.025	-0.005 ± 0.021	-0.003 ± 0.0085	-0.008 ± 0.0099	-0.0045 ± 0.011	-0.008 ± 0.0042	0.004 ± 0.0071	0.001 ± 0.0057	0.006 ± 0.0028
CASM3C:SRB	0.001 ± 0.0057	-0.0035 ± 0.0021	0.002 ± 0.0042	0.0015 ± 0.0021	0.006 ± 0.0014	-0.0085 ± 0.0064	0.002 ± 0.0042	0.0055 ± 0.0078	0.0065 ± 0.005	-0.001 ± 0.0028	0.008	0.0025 ± 0.00071	-0.0115 ± 0.005	-0.0085 ± 0.016	0.004 ± 0.013	0.006 ± 0.013	-0.0035 ± 0.0078	0.0025 ± 0.0078	0.008 ± 0.0028
CASM3C:Serum Amyloid A	-0.032 ± 0.023	-0.051 ± 0.02	-0.0425 ± 0.023	0.007 ± 0.011	0.009 ± 0.023	-0.027 ± 0.0014	0.0075 ± 0.0021	0.0035 ± 0.012	0.0025 ± 0.019	-0.007 ± 0.0057	0.0065 ± 0.032	-0.054 ± 0.071	-0.0535 ± 0.026	-0.003 ± 0.024	-0.0055 ± 0.039	0.012 ± 0.018	0.0625 ± 0.018	0.0155 ± 0.00071	0.0205 ± 0.036
HDF3CGF:CCL2/MCP-1	-0.0445 ± 0.0092	-0.0295 ± 0.005	-0.048 ± 0.0028	0.023 ± 0.0042	0.0305 ± 0.029	-0.01 ± 0.0057	-0.013 ± 0.0057	-0.0025 ± 0.025	-0.032 ± 0.023	-0.021 ± 0.011	0.014 ± 0.031	-0.017 ± 0.054	-0.004 ± 0.04	0.0095 ± 0.028	0.0185 ± 0.016	0.047 ± 0.018	0.091 ± 0.014	0.0125 ± 0.0064	-0.065 ± 0.014
HDF3CGF:CXCL8/IL-8	0.007 ± 0.018	0.0045 ± 0.015	0.0035 ± 0.011	0.0045 ± 0.011	0.0245 ± 0.0064	-0.003 ± 0.0057	0.0005 ± 0.00071	0.0125 ± 0.0092	-0.003	-0.011 ± 0.0042	0.007 ± 0.016	-0.0085 ± 0.0035	0.0015 ± 0.0078	0.0045 ± 0.018	0.0015 ± 0.0021	0.0035 ± 0.0021	0.017 ± 0.013	-0.009 ± 0.0071	-0.003 ± 0.016
HDF3CGF:CXCL9/MIG	0.0025 ± 0.019	0.0095 ± 0.00071	0.015 ± 0.0085	0.01 ± 0.0014	-0.063 ± 0.014	-0.012 ± 0.0071	-0.0305 ± 0.016	-0.022 ± 0.011	-0.002 ± 0.0028	-0.0025 ± 0.018	0.004 ± 0.024	0.0055 ± 0.00071	-0.0065 ± 0.012	-0.0025 ± 0.0035	0.0165 ± 0.019	0.01 ± 0.028	-0.061 ± 0.037	-0.089 ± 0.0099	-0.222 ± 0.014
HDF3CGF:Collagen I	-0.0655 ± 0.022	-0.0695 ± 0.049	0.0095 ± 0.097	0.013 ± 0.095	0.069	0.0275 ± 0.03	0.021 ± 0.0099	0.065 ± 0.047	-0.0295 ± 0.015	-0.015 ± 0.017	0.0085 ± 0.056	-0.005 ± 0.058	0.005 ± 0.021	0.027 ± 0.02	0.005 ± 0.035	0.0075 ± 0.011	-0.0435 ± 0.015	-0.093 ± 0.034	-0.077 ± 0.025
HDF3CGF:Collagen III	-0.0285 ± 0.044	-0.007 ± 0.041	0.003 ± 0.052	-0.059 ± 0.072	-0.079 ± 0.016	-0.043 ± 0.12	-0.051 ± 0.018	-0.0075 ± 0.11	-0.002 ± 0.018	-0.002 ± 0.0042	0.0325 ± 0.036	-0.011 ± 0.0042	-0.0155 ± 0.012	-0.0165 ± 0.00071	0.0055 ± 0.022	0.0305 ± 0.011	-0.1 ± 0.018	-0.172 ± 0.033	-0.294 ± 0.03
HDF3CGF:EGFR	0.004 ± 0.0071	0.0275 ± 0.028	0.0155 ± 0.0092	0.0505 ± 0.054	-0.005 ± 0.12	-0.0495 ± 0.064	-0.054 ± 0.072	-0.0055 ± 0.04	-0.0205 ± 0.06	-0.0615 ± 0.14	0.034 ± 0.025	0.001 ± 0.033	0.0025 ± 0.046	0.0125 ± 0.043	0.0525 ± 0.0064	0.043 ± 0.024	-0.103 ± 0.059	-0.022 ± 0.011	-0.124 ± 0.018
HDF3CGF:M-CSF	-0.02 ± 0.0057	-0.022 ± 0.0099	-0.029 ± 0.0028	0.031 ± 0.058	-0.074 ± 0.069	-0.0665 ± 0.063	-0.065 ± 0.023	-0.07 ± 0.027	-0.0125 ± 0.025	-0.018 ± 0.031	-0.029 ± 0.069	-0.0065 ± 0.0078	-0.008 ± 0.0014	0.017 ± 0.031	0.0285 ± 0.037	0.0395 ± 0.035	-0.065 ± 0.038	-0.0345 ± 0.005	-0.108 ± 0.029
HDF3CGF:Proliferation 72hr	-0.0385 ± 0.035	-0.0525 ± 0.015	-0.0545 ± 0.0021	0.076 ± 0.018	-0.163 ± 0.079	0.0025 ± 0.0064	-0.012 ± 0.0099	-0.0085 ± 0.039	0.002 ± 0.041	-0.008	0.028 ± 0.038	-0.0005 ± 0.046	-0.0245 ± 0.06	-0.0205 ± 0.037	0.058 ± 0.03	0.0595 ± 0.0078	-0.267 ± 0.028	-0.253 ± 0.048	-0.443 ± 0.0028
